Where “and” joins values, the source holds several entries; their conditions need not be identical. Equal entries are not always repeated.
What was measured:
OASS-A = molecular target: T1, OASS-A (Salmonella typhimurium, UniProt P0A1E3); assay: Ligand binding affinity to OASS-A by PLP fluorescence titration; conditions: for Kd: PLP fluorescence at 500 nm, excitation 412 nm, 100 mM Hepes pH 7.0, 20 °C
T1 construct: OASS-A and OASS-B were expressed and purified as previously described; made in house
T1 sequence (P0A1E3 whole entry): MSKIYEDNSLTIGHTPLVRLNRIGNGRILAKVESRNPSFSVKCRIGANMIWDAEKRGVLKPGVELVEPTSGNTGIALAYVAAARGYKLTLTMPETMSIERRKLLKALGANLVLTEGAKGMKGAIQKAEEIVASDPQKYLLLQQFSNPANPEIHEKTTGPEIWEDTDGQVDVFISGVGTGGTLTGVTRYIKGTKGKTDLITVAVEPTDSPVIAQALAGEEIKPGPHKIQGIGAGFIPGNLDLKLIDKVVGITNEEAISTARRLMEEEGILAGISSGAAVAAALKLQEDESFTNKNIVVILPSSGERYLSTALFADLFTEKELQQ
Description: (§1) OASS-A and OASS-B were expressed and purified as previously described. The binding affinity of selected ligands to OASS-A and OASS-B was determined by monitoring the increase in fluorescence emission of the bound PLP at 500 nm following excitation at 412 nm, [55]. Emission spectra were collected at increasing ligand concentrations in the presence of 0.05–1 µM OASS, 100 mM Hepes buffer, pH 7.0 at 20°C. DMSO and/or potassium hydroxide were added when needed to solubilize the compounds and pH was checked to be between 7 and 8.5. Spectra were corrected for the buffer contribution. Fluorescence measurements were carried out using a FluoroMax-3 fluorometer (HORIBA-Jobin Yvon), equipped with a thermostated cell-holder.
(§2) The dependence of fluorescence intensity at 500 nm on ligand concentration was fitted to a binding isotherm: [drawing 1] (1) where I is the fluorescence intensity at 500 nm in the presence of the ligand, I0 is the fluorescence intensity in the absence of ligand, Imax is the maximum fluorescence change at saturating ligand concentrations, [L] is the ligand concentration, and Kd is the dissociation constant of the OASS-ligand complex. This measurement is a direct determination of ligand dissociation constant in the absence of substrate, thus it coincides with Ki, independently from the inhibition mechanism.
(§3) A total of 12 compounds for OASS-A (Table 1) and 11 compounds for OASS-B (Table 2) predicted to be potential ligands were experimentally tested by determining their dissociation constants exploiting PLP fluorescence changes as a function of ligand concentration. The observed increases in coenzyme fluorescence and the concomitant blue shifts of the peaks upon ligand binding result from the closure of the active site – thus altering the coenzyme microenvironment, [55]. It is important to point out that the evaluated dissociation constants for these compounds correspond to their inhibition constants, Ki, because they occupy the enzyme active site, [19], and, therefore, are purely competitive inhibitors.

OASS-B = molecular target: T2, OASS-B (Salmonella typhimurium, UniProt P29848); assay: Ligand binding affinity to OASS-B by PLP fluorescence titration; conditions: PLP fluorescence at 500 nm, excitation 412 nm, 100 mM Hepes pH 7.0, 20 °C
T2 construct: OASS-A and OASS-B were expressed and purified as previously described; made in house
T2 sequence (P29848 whole entry): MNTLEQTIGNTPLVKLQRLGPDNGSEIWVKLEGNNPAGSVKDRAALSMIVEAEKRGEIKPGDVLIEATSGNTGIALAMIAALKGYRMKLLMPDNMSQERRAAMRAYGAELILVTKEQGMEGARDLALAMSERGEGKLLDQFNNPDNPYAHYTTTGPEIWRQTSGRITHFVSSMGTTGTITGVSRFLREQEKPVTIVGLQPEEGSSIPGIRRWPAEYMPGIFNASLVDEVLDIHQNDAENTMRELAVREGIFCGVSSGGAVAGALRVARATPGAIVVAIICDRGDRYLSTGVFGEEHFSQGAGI
Description: as §1, §2, §3

OASS = assay: Reaction or time-dependent inactivation of OASS by ligand; type: biochemical, Salmonella typhimurium; conditions: under the paper's experimental conditions
[1] = system: S. typhimurium knock-out for cysteine synthase; set-up: method as in PMID 18957594; conditions: cysteine synthase knock-out vs wild type; cited from earlier work

Row | SMILES | Kd (OASS-A) | Kd (OASS-B) | further results
1 | O=C(O)CNC(=O)CNC(=O)C1C2C=CC(C2)C1C(=O)O (centres unmarked) [Compound 1] | 3.8 µM and < 100 µM and 3.7 µM | 50 ± 5 µM | 
2 | O=C(O)C1CC=CCC1C(=O)Nc1nncs1 (centres unmarked) [Compound 2] | 82 ± 18 µM | > 1500 µM | 
3 | CC(C)C(NS(=O)(=O)c1cccs1)C(=O)O (centres unmarked) [Compound 3] | 95 ± 10 µM | > 1500 µM | 
4 | O=C(O)CC(C(=O)O)c1ccccc1 (centres unmarked) [Compound 4] | 103 ± 9 µM |  | 
5 | O=C(O)C1CCCCN1S(=O)(=O)c1cccc([N+](=O)[O-])c1 (centres unmarked) [Compound 5] | 218 ± 61 µM |  | 
6 | O=C(O)C1CC=CCC1C(=O)NCc1ccncc1 (centres unmarked) [Compound 6] | 283 ± 19 µM |  | 
7 | CC(C)CC(NC(=O)c1ccco1)C(=O)O (centres unmarked) [Compound 7] | 558 ± 131 µM |  | 
8 | CC1=C(C(=O)O)N2C(=O)C(NC(=O)c3nn(C)cc3[N+](=O)[O-])C2SC1 (centres unmarked) [Compound 8] | 732 ± 72 µM |  | 
9 | O=C(NC(Cc1ccccc1)C(=O)O)c1ccco1 (centres unmarked) [Compound 9] | 1300 ± 400 µM |  | 
10 | Cc1nnc(NC(=O)c2c(C(=O)O)cccc2[N+](=O)[O-])s1 [Compound 10] | > 1500 µM |  | 
11 | O=C(O)c1ccoc1CN1CCOCC1 [Compound 11] | > 1500 µM |  | 
12 | CC(C)CC(NC=C1C(=O)OC(C)(C)OC1=O)C(=O)O (centres unmarked) [Compound 12] | > 1500 µM |  | binding to OASS-A (in words) (OASS-A; fluorimetric titration): no binding was observed
13 | O=C(O)/C=C(/Cl)CC(=O)O [Compound 13] | 29 ± 3 µM | 33 ± 2 µM | reaction or time-dependent inactivation of OASS (OASS): no reaction or time-dependent inactivation of OASS was observed
14 | Cn1nnnc1Sc1ncccc1C(=O)O [Compound 14] | > 1500 µM | 810 ± 110 µM | 
15 | O=C(O)CSc1nsc(SCC(=O)O)n1 [Compound 16] |  | > 1500 µM | 
16 | CC1(C)OC(=O)C(=CNC(CCC(=O)O)C(=O)O)C(=O)O1 (centres unmarked) [Compound 17] |  | > 1500 µM | 
17 | CC1(C(=O)O)Cc2oncc2CC1C(=O)O (centres unmarked) [Compound 18] |  | > 1500 µM | 
18 | O=C(O)CCN(CCC(=O)O)S(=O)(=O)c1ccccc1 [Compound 19] |  | > 1500 µM | 
19 | CCC1([N+](=O)[O-])CN(CC(=O)O)CN(CC(=O)O)C1 [Compound 21] |  | > 1500 µM | 
20 | C[S+]([O-])CCC(NS(=O)(=O)c1ccccc1)C(=O)O (centres unmarked) [Compound 22] |  | > 1500 µM | 
21 | CCn1ncc([N+](=O)[O-])c1C(=O)O [Compound 23] |  | > 1500 µM | 
22 | O=C(O)c1cn(C2CC2)c2cc(N3CCNCC3)c(F)cc2c1=O [ciprofloxacin] |  |  | MIC lower than wild type bacterium [1]: 500 fold

From PMC3805590, “Isozyme-Specific Ligands for O-acetylserine sulfhydrylase, a Novel Antibiotic Target” (PLoS ONE, 2013)
